# Several values for one entry are separate records, joined by “and”; a condition that tells them apart may be missing. Identical values can stand only once. Entries after “also recorded” stand apart in the source; their conditions may differ.
# What was measured:
# [1] = system: mRNA within LNP formulations; test: Screen of molecular dyes on mRNA stability within LNP formulations (RP-HPLC); format: physicochemical
# Procedure: This example discusses the effects of various dye molecules on mRNA stability within LNP formulations. To evaluate the potential stabilization effects of dyes, LNP compositions were prepared containing 2 mM of one of 25 dyes. After incubation for 4 days at 40° C., main peak mRNA purity was measured by RP-HPLC. Variance within this study was estimated from three independent sample replicates with no dye (Sample IDs D0a, D0b and D0c as shown in Table 4) or with 2 mM methylene blue (Sample IDs D1a, D1b and D1c as shown in Table 4). […] The main peak purity measured in each mRNA-LNP formulation, as well as its difference relative to the no dye controls is shown in Table 4. Positive differences relative to no dye represent improvements in mRNA stability, and negative differences represent worsened mRNA stability.
# [2] = system: mRNA-LNP; test: DLS characterization of mRNA-LNP physical stability in presence of methylene blue; format: physicochemical
# Description: Particle size (e.g., particle diameter) can be determined by Dynamic Light Scattering (DLS). DLS measures a hydrodynamic diameter. Smaller particles diffuse more quickly, leading to faster fluctuations in the scattering intensity and shorter decay times for the autocorrelation function. Larger particles diffuse more slowly, leading to slower fluctuations in the scattering intensity and longer decay times in the autocorrelation function.
# (§1) In view of the surprising and somewhat counter-intuitive finding that methylene blue enhanced stability of mRNA-LNP formulations, additional experimentation was conducted. The stability of mRNA-LNPs in the presence of increasing levels of methylene blue was investigated upon incubation at 5° C., 25° C. or 40° C. for 10 days. […] In addition to chemical stability, a careful examination of the possible impact of methylene blue on the physical state of the LNP was performed using dynamic light scattering (DLS). This technique is exquisitely sensitive to tiny changes in hydrodynamic nanoparticle size, especially with respect to the formation of larger aggregates known to be a common physical degradation mode of many LNPs.
# After the 3 week incubation, samples were analyzed by dynamic light scattering (DLS) to characterize the hydrodynamic diameters of LNPs.
# Samples were measured by dynamic light scattering (DLS) in PBS after being filtered through 0.8 μm filters to remove large particulates.
# [3] = system: mRNA; test: Differential scanning calorimetry of mRNA with methylene blue; format: physicochemical
# Procedure: To test the effect of methylene blue on folding and intramolecular hybridization of mRNA, differential scanning calorimetry (DSC) was conducted on samples of mRNA containing no methylene blue, 50 μM methylene blue, or 100 μM methylene blue. […] At higher methylene blue concentrations (approximately 0.5 mM), precipitation of mRNA occurs, but at the concentrations of this experiment the mRNA-dye complex remains soluble. It is notable that the sharp transitions at ˜74° C. and 80° C. are not affected by the presence of dye, whereas there is a massive effect on the least thermally stable transitions occurring in the <60° C. region, shown by the large rightward shift of the curves with the addition of methylene blue. By comparison, therapeutic protein stabilization strategies commonly involve screening of excipient effects on thermal unfolding, however, the thermal shifts observed for optimized protein formulations typically involve thermal shifts of only a few degrees.
# The DSC thermogram show the effects on the thermal unfolding profile of mRNA in the presence or absence of […] methylene blue. When the methylene blue-containing sample was dialyzed to remove dye, the resulting thermogram corresponded closely to that of the original no-dye sample. […] All the fine details of the thermal unfolding profile were restored post-dialysis, indicating a restoration of the original structure-function of the mRNA.
# [4] = system: lyophilized mRNA-LNP; test: Stability of lyophilized mRNA-LNP with methylene blue (RP-HPLC); format: physicochemical; conditions: lyophilized mRNA-LNP powder with 1 mM methylene blue, 1 week at 40° C.
# Procedure: To evaluate whether methylene blue could have a stabilization effect on lyophilized powder formulations of mRNA-LNP, studies were performed to compare the effect of 1 mM methylene blue on loss of purity of a lyophilized mRNA-LNP. In this experiment methylene blue was added to LNP immediately prior to lyophilization. The resulting powders (shown in FIG. 15) were stored at −80° C., 5° C. or 40° C. with or without methylene blue.
# [5] = system: mRNA within LNP compositions; test: mRNA integrity by fragmentation analysis after 10 days at 5, 25 or 40° C. with methylene blue; format: physicochemical; conditions: for mRNA stability by fragmentation analysis: 0.1-6 mM methylene blue
# Description: (§2) mRNA purity can be determined by reverse phase high-performance liquid chromatography (RP-HPLC) size based separation. This method can be used to assess mRNA integrity by a length-based gradient RP separation and UV detection of RNA at 260 nm. As used herein “main peak” or “main peak purity” refers to the RP-HPLC signal detected from mRNA that corresponds to the full size mRNA molecule loaded within a given LNP formulation. mRNA purity can also be assessed by fragmentation analysis. Fragmentation analysis (FA) is a method by which nucleic acid (e.g., mRNA) fragments can be analyzed by capillary electrophoresis. Fragmentation analysis involves sizing and quantifying nucleic acids (e.g., mRNA), for example by using an intercalating dye coupled with an LED light source. Such analysis may be completed, for example, with a Fragment Analyzer from Advanced Analytical Technologies, Inc.
# as §1
# [6] = system: mRNA encapsulated within LNPs; test: mRNA-LNP stability with thionine or methylene blue, main peak purity by fragmentation analysis; format: physicochemical; conditions: mRNA-LNP with incremental dye 0.01-1.5 mM, 3 weeks at room temperature and 40° C., relative to no dye
# Description: as §2
# A study was performed to compare the effects of thionine, a phenothiazinium dye that permeates LNPs, with methylene blue which permeates LNPs to a lesser extent. A series of mRNA-LNP samples were prepared containing incremental levels of each dye as detailed in Table 1. These samples were incubated under two temperature conditions of room temperature and 40 C for 3 weeks prior to analysis.
# [7] = target: mRNA; test: ITC of dye-mRNA interaction; format: binding
# [8] = system: mRNA; test: DLS of methylene blue-mRNA interaction; format: physicochemical; conditions: methylene blue concentrations in the 10 μM range; data not shown
# Description: The images in FIG. 22 show the effect of thionine on mRNA-LNPs. […] The significant protection against fragmentation and adduct formation conferred by the compounds disclosed herein may be based on this effect on nucleic acid conformational state.
# [9] = system: mRNA-LNP; test: DOE study of solution composition with and without methylene blue, main peak purity by RP-HPLC; format: physicochemical; conditions: 2 mM methylene blue, 40° C. ~1 week
# Description: To broadly evaluate the effect of methylene blue under a large number of systematically varied solution conditions, a design of experiment (DOE) approach was utilized.
structure (smiles),measurement,setting,value
CN(C)c1ccc2nc3ccc(N(C)C)cc3[s+]c2c1 [methylene blue],Main Peak Purity after 4 days at 40° C. (%),"[1]; 2 mM dye in mRNA-LNP, RP-HPLC, no value (—) = physically unstable, no reliable chromatographic result, interpreted as destabilizing",89.62% and 90.27% and 85.96%
same,Mean (Main Peak Purity after 4 days at 40° C.),"[1]; 2 mM dye, three independent sample replicates",89 ± 2%
same,Difference relative to No Dye,"[1]; main peak purity, 2 mM dye, 4 days at 40° C., ±4% interpreted as significant",14%
same,LNP size distributions and average hydrodynamic diameters by DLS,"[2]; 0.5-2.0 mM methylene blue, 3 weeks refrigerated storage",does not have an impact on the overall lipid nanoparticle structure
same,hydrodynamic size or size distribution (polydispersity index) of LNP by DLS,"[2]; up to 2.0 mM methylene blue, 5 months refrigerated storage",no significant impact
same,hydrodynamic size / physical stability of the LNP by DLS,"[2]; up to 6 mM methylene blue, 10 days at 5° C., 25° C. and 40° C.",no significant effect on hydrodynamic size of the LNP; also recorded: no impact on the physical stability of the mRNA-LNP
same,methylene blue concentration with appreciable impact to mRNA conformational stability (DSC),[3],~10 µM
same,methylene blue concentration giving dramatic global changes in overall mRNA structure (DSC),"[3]; 0.3 μM mRNA, 32.5 mM sodium acetate, pH 5.0",≥ 367.8 µM
same,folded stability of mRNA (DSC thermogram),[3]; 50 μM or 100 μM methylene blue vs no methylene blue,enormous enhancement of folded stability
same,reversibility of methylene blue binding to mRNA (DSC after dialysis),"[3]; 100 mM methylene blue, dialyzed to remove dye",reversible
same,lowest methylene blue concentration affecting the folded structure of mRNA (DSC),[3]; mRNA at 0.3 μM,11.3 µM
same,methylene blue concentration at which precipitation of mRNA occurs,[3]; mRNA in solution,approximately 0.5 mM
same,main peak purity,[4],30% and 33%
same,mRNA stability by fragmentation analysis,[5]; 5° C.,slight trend in the opposite direction
same,methylene blue concentration range at which stabilizing effect reached a maximum,"[5]; 40° C., fragmentation analysis",1.5 to 3.0 mM
same,mRNA stability by fragmentation analysis,[5]; room temperature,protective effect
same,% main peak purity by fragmentation analysis (mRNA stability),[6],stabilized it; also recorded: significantly improved mRNA stability relative to the no-dye control
same,dissociation constant for the dye-mRNA interaction (ITC),[7],μm dissociation constant
same,mRNA hydrodynamic radii (DLS),[8],measurable decrease in mRNA hydrodynamic radii
same,average purity of the 14 samples,[9]; 14 buffer/pH/NaCl conditions,60±6%
same,main peak mRNA purity (range over samples 15-28),"[9]; Tris or phosphate buffer pH 7.0-8.5, 0 or 150 mM NaCl, RP-HPLC",50-70%

# Reference: patent US20230190761A1, “METHYLENE BLUE STABILIZED MRNA COMPOSITIONS” (ModernaTX, Inc., priority 2020, published 2023)
